Data set [1] in a line: HMF distribution between MIBK phase and aqueous phase with different salts and boric acid. The settings on record: 30 wt % fructose, B(OH)3 0.3 g and salt 3 mmol (anion) in 3 mL, MIBK:aqueous 4:1, 150° C. 45 min. Type of data set: physicochemical. How it is done: An aqueous solution containing 30 wt % fructose (3 mL, 5.7 mmol) was mounted in an Ace vial pressure tube (stable to ˜20 Bar) and solid B(OH)3 (0.3 g, 5 mmol) and solid salt (3 mmol with respect to the anion) were added to the solution. MIBK was added as extraction solvent so that an organic:aqueous volume ratio of 4:1 was obtained. The tube with the reaction mixture was placed in a preheated oil bath for a specified time under magnetic stirring (420 rpm) at a 150° C. for 45 min (reaction times were measured after a stable oil bath temperature had been reached). After the reaction, the tube was removed from the oil bath and cooled to room temperature before a sample was taken for analysis. A sample of the reaction mixture was collected and filtered through a syringe filter (0.45 μm PTFE), mixed with an internal standard (i-PrOH) and analyzed via HPLC.
The R value indicated in table 9 is the HMF distribution obtained between the MIBK phase and the aqueous phase, i.e. [HMF]MIBK/[HMF]aq

Data set [2] addresses immobilized glucose isomerase (Sweetzyme™) (Streptomyces murinus, UniProt P37031). The settings on record: for glucose isomerase performance at high salt concentration: as shown in example 12; for stability of Sweetzyme™ in the presence of the salt: conclusion of example 12.
Experimental: 3 gram immobilized glucose isomerase (Sweetzyme™) was loaded in a lab-scale column heated to 60° C. and a substrate flow of 50 gram/hour was applied. […] Samples were collected on a regular basis for HPLC analysis and the enzyme activity was calculated according to the following equation (Jorgensen, O. B., et al., Starch-Starke, 1988. 40(8), 307-313):
[formula] where: A: specific activity of immobilized enzyme (micromol/min/g enzyme) (IGIU/g: Immobilized Glucose Isomerase Units/g) 0.926: unit conversion factor Fw: Flow rate of syrup (g/h) w: Weight of enzyme (g) DP1: Inlet % of (glucose+fructose) in dry substance (100 at analytical conditions) DS: Dry substance content (%) X: Conversion=outlet % fructose/DP1 Xi: inlet % fructose/DP1 Xe: X at equilibrium (0.51 at 60° C.) DP1, Xi and Xe were assumed constant with following values: DP1: 99.7 Xi: 0 Xe: 0.5078

Where two headings read alike, the source gives them in different places.

Sequence of immobilized glucose isomerase (Sweetzyme™) (P37031 whole entry): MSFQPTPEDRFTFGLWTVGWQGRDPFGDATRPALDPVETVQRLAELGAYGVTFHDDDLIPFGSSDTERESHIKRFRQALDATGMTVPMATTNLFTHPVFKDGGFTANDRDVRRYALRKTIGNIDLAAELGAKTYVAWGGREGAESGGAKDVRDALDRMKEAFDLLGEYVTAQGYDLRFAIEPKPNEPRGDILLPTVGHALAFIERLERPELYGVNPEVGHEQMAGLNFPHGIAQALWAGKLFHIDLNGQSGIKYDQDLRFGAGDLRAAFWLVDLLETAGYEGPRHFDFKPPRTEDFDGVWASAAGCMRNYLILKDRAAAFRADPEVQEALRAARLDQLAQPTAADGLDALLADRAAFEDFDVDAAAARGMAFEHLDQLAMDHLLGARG

On to `[Cl-].[Cl-].[Mg+2]` [MgCl], for which the “R value (MIBK:aq)” value in data set [1] was determined as 1.1.

On to `[Cl-].[Na+]` [NaCl, sodium chloride], for which, in data set [1], the “R value (MIBK:aq)” value is given as 1.0. The Activity is 431.74 IGIU/g in data set [2] (50 g/l NaCl, time 19.25 h); 438.80 IGIU/g in data set [2] (50 g/l NaCl, time 47.25 h); 438.50 IGIU/g in data set [2] (50 g/l NaCl, time 67.75 h); 425.49 IGIU/g in data set [2] (50 g/l NaCl, time 139.75 h); 471.33 IGIU/g in data set [2] (50 g/l NaCl, time 164.58 h); 469.46 IGIU/g in data set [2] (50 g/l NaCl, time 188.58 h). The Activity in data set [2] (50 g/l NaCl, time 212.58 h) came out at 451.52 IGIU/g; in data set [2] (50 g/l NaCl, time 234.92 h), 468.84 IGIU/g; in data set [2] (50 g/l NaCl, time 310.33 h), 466.38 IGIU/g; in data set [2] (50 g/l NaCl, time 332.50 h), 468.14 IGIU/g; in data set [2] (50 g/l NaCl, time 379.92 h), 449.12 IGIU/g; in data set [2] (50 g/l NaCl, time 475.50 h), 446.72 IGIU/g. The Activity was found to be 445.83 IGIU/g in data set [2] (50 g/l NaCl, time 499.42 h); 439.69 IGIU/g in data set [2] (50 g/l NaCl, time 523.33 h); 436.34 IGIU/g in data set [2] (50 g/l NaCl, time 548.42 h); 436.11 IGIU/g in data set [2] (50 g/l NaCl, time 570.25 h); 446.01 IGIU/g in data set [2] (50 g/l NaCl, time 643.00 h); 435.86 IGIU/g in data set [2] (50 g/l NaCl, time 670.75 h). Also, the “glucose isomerase performance at high salt concentration” value (“glucose isomerase performance” for short) in data set [2] is “further stabilised”. Besides, the “stability of Sweetzyme™ in the presence of the salt” value (“stability of Sweetzyme™” below) in data set [2] is on record as “good stability”.

For `[Cl-].[K+]` [KCl, potassium chloride], the “R value (MIBK:aq)” value in data set [1] was 1.0. In addition, the Activity in data set [2] (Column 4: 63.78 g/l KCl, time 18.17 h) was 398.12 IGIU/g; in data set [2] (Column 4: 63.78 g/l KCl, time 46.17 h), 410.62 IGIU/g; in data set [2] (Column 4: 63.78 g/l KCl, time 66.67 h), 411.97 IGIU/g; in data set [2] (Column 4: 63.78 g/l KCl, time 138.67 h) it was 415.42 IGIU/g; in data set [2] (Column 4: 63.78 g/l KCl, time 163.50 h) it was 429.63 IGIU/g; in data set [2] (Column 4: 63.78 g/l KCl, time 211.50 h), 448.90 IGIU/g. The Activity in data set [2] (Column 4: 63.78 g/l KCl, time 233.83 h) is 469.08 IGIU/g; in data set [2] (Column 4: 63.78 g/l KCl, time 309.25 h), 468.47 IGIU/g; in data set [2] (Column 4: 63.78 g/l KCl, time 331.42 h), 469.21 IGIU/g; in data set [2] (Column 4: 63.78 g/l KCl, time 378.83 h), 443.80 IGIU/g; in data set [2] (Column 4: 63.78 g/l KCl, time 474.42 h), 430.17 IGIU/g; in data set [2] (Column 4: 63.78 g/l KCl, time 498.33 h), 428.76 IGIU/g. The Activity in data set [2] (Column 4: 63.78 g/l KCl, time 522.25 h) is on record as 418.17 IGIU/g; in data set [2] (Column 4: 63.78 g/l KCl, time 547.33 h) it was 437.40 IGIU/g; in data set [2] (Column 4: 63.78 g/l KCl, time 569.17 h), 438.97 IGIU/g; in data set [2] (Column 4: 63.78 g/l KCl, time 641.92 h), 455.49 IGIU/g; in data set [2] (Column 4: 63.78 g/l KCl, time 669.67 h), 426.01 IGIU/g. Also, the “glucose isomerase performance” value in data set [2] was “comparable with a normal glucose substrate”. The “stability of Sweetzyme™” value in data set [2] is listed as “good stability”.

Regarding `O=[N+]([O-])[O-].[Li+]` [LiNO3, lithium nitrate], in data set [1], the “R value (MIBK:aq)” value is listed as 0.9.

Turning to `O=[N+]([O-])[O-].[K+]` [KNO3, potassium nitrate], the “R value (MIBK:aq)” value in data set [1] was determined as 0.8.

For `O=[N+]([O-])[O-].[Na+]` [NaNO3, sodium nitrate], the “R value (MIBK:aq)” value in data set [1] is given as 0.9.

For `O=S(=O)([O-])[O-].[Mg+2]` [MgSO4, Magnesium sulfate], the Activity is 412.41 IGIU/g in data set [2] (Column 6: 102.98 g/l MgSO4, time 17.50 h); 420.62 IGIU/g in data set [2] (Column 6: 102.98 g/l MgSO4, time 45.50 h); 419.46 IGIU/g in data set [2] (Column 6: 102.98 g/l MgSO4, time 66.00 h); 428.95 IGIU/g in data set [2] (Column 6: 102.98 g/l MgSO4, time 138.00 h); 436.79 IGIU/g in data set [2] (Column 6: 102.98 g/l MgSO4, time 162.83 h); 452.92 IGIU/g in data set [2] (Column 6: 102.98 g/l MgSO4, time 186.83 h). Further, the Activity in data set [2] (Column 6: 102.98 g/l MgSO4, time 210.83 h) was found to be 465.04 IGIU/g; in data set [2] (Column 6: 102.98 g/l MgSO4, time 233.17 h), 424.51 IGIU/g; in data set [2] (Column 6: 102.98 g/l MgSO4, time 308.58 h) it was 370.47 IGIU/g; in data set [2] (Column 6: 102.98 g/l MgSO4, time 330.75 h), 366.35 IGIU/g; in data set [2] (Column 6: 102.98 g/l MgSO4, time 378.17 h), 324.95 IGIU/g; in data set [2] (Column 6: 102.98 g/l MgSO4, time 473.75 h), 306.53 IGIU/g. Further, the Activity worked out at 298.41 IGIU/g in data set [2] (Column 6: 102.98 g/l MgSO4, time 497.67 h); 299.60 IGIU/g in data set [2] (Column 6: 102.98 g/l MgSO4, time 521.58 h); 310.87 IGIU/g in data set [2] (Column 6: 102.98 g/l MgSO4, time 568.50 h).

As to `[Br-].[K+]` [KBr, potassium bromide], the “R value (MIBK:aq)” value in data set [1] is recorded as 0.9.

`O=S(=O)([O-])[O-].[Na+].[Na+]` [Na2SO4, sodium sulphate]: in data set [1], the “R value (MIBK:aq)” value is 1.7. The Activity is recorded as 418.97 IGIU/g in data set [2] (Column 5: 61.08 g/l Na2SO4, time 17.83 h); 433.23 IGIU/g in data set [2] (Column 5: 61.08 g/l Na2SO4, time 45.83 h); 432.90 IGIU/g in data set [2] (Column 5: 61.08 g/l Na2SO4, time 66.33 h); 427.76 IGIU/g in data set [2] (Column 5: 61.08 g/l Na2SO4, time 138.33 h); 439.97 IGIU/g in data set [2] (Column 5: 61.08 g/l Na2SO4, time 163.17 h); 449.17 IGIU/g in data set [2] (Column 5: 61.08 g/l Na2SO4, time 187.17 h). The Activity in data set [2] (Column 5: 61.08 g/l Na2SO4, time 211.17 h) came out at 437.81 IGIU/g; in data set [2] (Column 5: 61.08 g/l Na2SO4, time 233.50 h), 449.65 IGIU/g; in data set [2] (Column 5: 61.08 g/l Na2SO4, time 308.92 h) it was 437.45 IGIU/g; in data set [2] (Column 5: 61.08 g/l Na2SO4, time 331.08 h) it was 437.38 IGIU/g; in data set [2] (Column 5: 61.08 g/l Na2SO4, time 378.50 h), 429.47 IGIU/g; in data set [2] (Column 5: 61.08 g/l Na2SO4, time 474.08 h), 381.79 IGIU/g. For the same compound, the Activity in data set [2] (Column 5: 61.08 g/l Na2SO4, time 498.00 h) was 387.83 IGIU/g; in data set [2] (Column 5: 61.08 g/l Na2SO4, time 521.92 h), 382.13 IGIU/g; in data set [2] (Column 5: 61.08 g/l Na2SO4, time 547.00 h), 394.91 IGIU/g; in data set [2] (Column 5: 61.08 g/l Na2SO4, time 568.83 h), 393.80 IGIU/g; in data set [2] (Column 5: 61.08 g/l Na2SO4, time 641.58 h), 376.25 IGIU/g; in data set [2] (Column 5: 61.08 g/l Na2SO4, time 669.33 h), 370.35 IGIU/g. Besides, the “glucose isomerase performance” value in data set [2] is given as “comparable with a normal glucose substrate”. In data set [2], the “stability of Sweetzyme™” value is “good stability”.

As for `[Br-].[Li+]` [LiBr, lithium bromide], the “R value (MIBK:aq)” value in data set [1] amounted to 1.0.

On to `[Br-].[Na+]` [NaBr, sodium bromide], for which the “R value (MIBK:aq)” value in data set [1] amounted to 0.9.

On to `[Cl][Al]([Cl])[Cl]` [AlCl3, aluminum chloride], for which the “R value (MIBK:aq)” value in data set [1] turned out to be 1.1.

As for `[Cl][Fe]([Cl])[Cl]` [FeCl3], the “R value (MIBK:aq)” value in data set [1] is recorded as 1.1.

Turning to `[I-].[K+]` [KI, potassium iodine], the “R value (MIBK:aq)” value in data set [1] amounted to 0.7.

With `O=S(=O)([O-])[O-].[K+].[K+]` [K2SO4, potassium sulphate], the “R value (MIBK:aq)” value in data set [1] was found to be 1.5.

For the compound `[Cl-].[Li+]` [LiCl, lithium chloride], the “R value (MIBK:aq)” value in data set [1] was 1.1.

The record behind these values is patent US8604225B2, “Method of producing hydroxymethyl-furfural” (Novozymes, A/S, priority 2010, dated 2013).
